This passage reports viability results from paper PMC11995724, “Antibiotic target discovery by integrated phenotypic and activity-based profiling of electrophilic fragments” (Cell chemical biology, 2025).

A short description of this data set: in vitro. Particulars: human, hek293t cells.
What is called viability is a read-out of living cells in per cent, often relative to untreated cells. Take `C=CC(=O)Nc1cccc(N2CCOCC2)c1` [1-K04, N-[3-(morpholin-4-yl)phenyl]prop-2-enamide]: the viability at 48 h, 25 µM turned out to be 74.1%.

In the case of `C=CC(=O)N1CCN(c2nc3ccccc3o2)CC1` [1-K05, 1-[4-(1,3-benzoxazol-2-yl)piperazin-1-yl]prop-2-en-1-one], the viability at 48 h, 25 µM came to 75.6%.

Take `C=CC(=O)N[C@@H](C)c1ccccc1OC` [1-K06, N-[(1S)-1-(2-methoxyphenyl)ethyl]prop-2-enamide]: the viability at 48 h, 25 µM was 84.3%.

With `C=CC(=O)NCC1CSCCS1` (stereo not drawn) [1-K07, N-[(1,4-dithian-2-yl)methyl]prop-2-enamide], the viability at 48 h, 25 µM stood at 78.1%.

Take `C=CC(=O)NCc1ccsc1-n1cccc1` [1-K08, N-{[2-(1H-pyrrol-1-yl)thiophen-3-yl]methyl}prop-2-enamide]: the viability at 48 h, 25 µM turned out to be 153%.

Turning to `C=CC(=O)N1CCn2cccc2C12COC2` [1-K09, 1-{3',4'-dihydro-2'H-spiro[oxetane-3,1'-pyrrolo[1,2-a]pyrazin]-2'-yl}prop-2-en-1-one], the viability at 48 h, 25 µM came out at 80.6%.

As for `C=CC(=O)NCc1ccc(OC)cc1` [1-K10, N-[(4-methoxyphenyl)methyl]prop-2-enamide], the viability at 48 h, 25 µM turned out to be 92%.

Consider `C=CC(=O)Nc1cc(S(=O)(=O)N(C)C)cc(C)c1C` [1-K11, N-[5-(dimethylsulfamoyl)-2,3-dimethylphenyl]prop-2-enamide], for which the viability at 48 h, 25 µM came out at 71.3%.

Take `C=CC(=O)NC1CCCN(Cc2ccccc2)C1` (stereo not drawn) [1-K12, N-(1-benzylpiperidin-3-yl)prop-2-enamide]: the viability at 48 h, 25 µM was found to be 82.8%.

Take `C=CC(=O)N1CCC(NC(=O)Nc2ccccc2OC)CC1` [1-K13, 3-(2-methoxyphenyl)-1-[1-(prop-2-enoyl)piperidin-4-yl]urea]: the viability at 48 h, 25 µM is 106%.

Consider `C=CC(=O)Nc1cccc(-c2cn(C)nn2)c1` [1-K14, N-[3-(1-methyl-1H-1,2,3-triazol-4-yl)phenyl]prop-2-enamide], for which the viability at 48 h, 25 µM is 82.8%.

With `C=CC(=O)Nc1ccc(C(=O)Nc2ccc(N3CCOCC3)nc2)cc1` [1-K15, N-[6-(morpholin-4-yl)pyridin-3-yl]-4-(prop-2-enamido)benzamide], the viability at 48 h, 25 µM turned out to be 1.79%.

In the case of `C=CC(=O)Nc1ccc(-c2noc(C)n2)cc1` [1-K16, N-[4-(5-methyl-1,2,4-oxadiazol-3-yl)phenyl]prop-2-enamide], the viability at 48 h, 25 µM was determined as 60.2%.

In the case of `C=CC(=O)NC12CC3(C)CC(C)(CC(O)(C3)C1)C2` [1-K17, N-(3-hydroxy-5,7-dimethyladamantan-1-yl)prop-2-enamide], the viability at 48 h, 25 µM was found to be 85.3%.

For the compound `C=CC(=O)NC1CCN(S(N)(=O)=O)CC1` [1-K18, N-(1-sulfamoylpiperidin-4-yl)prop-2-enamide], the viability at 48 h, 25 µM turned out to be 93.7%.

With `C=CC(=O)Nc1cc(-c2ccco2)nn1C(C)(C)C` [1-K19, N-[1-tert-butyl-3-(furan-2-yl)-1H-pyrazol-5-yl]prop-2-enamide], the viability at 48 h, 25 µM was 118%.

Turning to `C=CC(=O)N1CC(c2cc(CO)on2)C1` [1-K20, 1-{3-[5-(hydroxymethyl)-1,2-oxazol-3-yl]azetidin-1-yl}prop-2-en-1-one], the viability at 48 h, 25 µM was 103%.

On to `C=CC(=O)NCC(CC)n1nc(C)cc1C` (stereo not drawn) [1-K21, N-[2-(3,5-dimethyl-1H-pyrazol-1-yl)butyl]prop-2-enamide], for which the viability at 48 h, 25 µM was 108%.

`C=CC(=O)N1CCC(n2ncc3ccccc32)CC1` [1-K22, 1-[4-(1H-indazol-1-yl)piperidin-1-yl]prop-2-en-1-one]: the viability at 48 h, 25 µM came out at 94.9%.

As for `C=CC(=O)NC1CCN(c2nc(C3CC3)cc(C(F)(F)F)n2)CC1` [1-L03, N-{1-[4-cyclopropyl-6-(trifluoromethyl)pyrimidin-2-yl]piperidin-4-yl}prop-2-enamide], the viability at 48 h, 25 µM was found to be 108%.

As for `C=CC(=O)N1CCC(C(=O)NC(C)(C)c2ccc(F)c(F)c2)CC1` [1-L04, N-[2-(3,4-difluorophenyl)propan-2-yl]-1-(prop-2-enoyl)piperidine-4-carboxamide], the viability at 48 h, 25 µM amounted to 91.1%.
